According to the Deep4Chem optical property database:

Assay: photoluminescence quantum yield (fraction); solvent given as SMILES

`Cc1c(COC(=O)Cc2c[nH]c3ccccc23)n2c(OCC(=O)Cc3c[nH]c4ccccc34)c(C)c(=O)n2c1=O` gave a photoluminescence quantum yield (in CCO) of 0.715.

In the case of `c1cc2ccc1CCCc1cc3c(cc1CCCc1ccc(c4nsnc14)CCC3)CCC2`, the photoluminescence quantum yield (in C1CCCCC1) is reported as 0.12, the photoluminescence quantum yield (in CC#N) is reported as 0.02 and the photoluminescence quantum yield (in ClC(Cl)Cl) is reported as 0.08.

For `C1=C/C2=C(\c3ccccc3)c3c[nH]c(c3)/C(c3ccccc3)=C3/C=CC(=N3)/C(c3ccccc3)=c3/cc/c([nH]3)=C(\c3ccccc3)C1=N2`, the photoluminescence quantum yield (in CC(=O)N(C)C) was 0.046.

In the case of `FC(F)(F)c1ccc(C2=CC3=c4cc(-c5ccc(C(F)(F)F)cc5)c5nc(C(F)(F)C(F)(F)C(F)(F)F)nc6c(-c7ccc(C(F)(F)F)cc7)cc(c4c65)C4=CC(c5ccc(C(F)(F)F)cc5)=C5N=C(C(F)(F)C(F)(F)C(F)(F)F)N=C2C5C43)cc1` (stereo not drawn), the photoluminescence quantum yield (in C1CCOC1) is reported as 0.96.

In the case of `COc1ccc2c3c(c4ccc(OC)cc4c2c1)C(C)(C)c1ccc2ccccc2c1-3`, the photoluminescence quantum yield (in C1CCCCC1) is reported as 0.26.

Compound `O=C1c2cc(-n3c4ccccc4c4ccccc43)ccc2S(=O)(=O)c2ccc(-n3c4ccccc4c4ccccc43)cc21` has a photoluminescence quantum yield (in c1cc(-c2cccc(-n3c4ccccc4c4ccccc43)c2)cc(-n2c3ccccc3c3ccccc32)c1) of 0.348.

Work on `C(=C\c1ccc(/C=C/c2c3ccccc3cc3ccccc23)cc1)/c1ccncc1` yielded a photoluminescence quantum yield (in C1CCOC1) of 0.34.

Work on `CC1(C)c2cc(C#N)ccc2-c2ccc(N3c4ccccc4Oc4ccccc43)cc21` yielded a photoluminescence quantum yield (in C1CCCCC1) of 0.044, a photoluminescence quantum yield (in C1CCOC1) of 0.08 and a photoluminescence quantum yield (in CC#N) of 0.001. For the same compound, the photoluminescence quantum yield (in Cc1ccccc1) was 0.089 and the photoluminescence quantum yield (in ClC(Cl)Cl) was 0.11.

Work on `Cc1cc(C)c(B(c2c(C)cc(C)cc2C)c2c(C)cc(N3c4ccccc4Oc4ccccc43)cc2C)c(C)c1` yielded a photoluminescence quantum yield (in Cc1ccccc1) of 0.44 and a photoluminescence quantum yield (in c1ccc2c(c1)c1ccccc1n2-c1ccc(-c2ccc(-n3c4ccccc4c4ccccc43)cc2)cc1) of 0.92.

With `CCN1\C(=C/C=C/C=C/C2=[N+](CC)c3ccc4cc(Br)ccc4c3C2(C)C)C(C)(C)c2c1ccc1cc(Br)ccc21` the photoluminescence quantum yield (in CS(C)=O) was 0.381.

`CN(C)CCN(Cc1c2ccccc2cc2ccccc12)c1ccc([N+](=O)[O-])cc1` showed a photoluminescence quantum yield (in C1CCCCC1) of 0.0008, a photoluminescence quantum yield (in C1CCOC1) of 0.0015 and a photoluminescence quantum yield (in CC#N) of 0.0143. It also gave a photoluminescence quantum yield (in CC(C)=O) of 0.022, a photoluminescence quantum yield (in CCO) of 0.023 and a photoluminescence quantum yield (in CN(C)C=O) of 0.0411. For the same compound, the photoluminescence quantum yield (in CO) was 0.0606 and the photoluminescence quantum yield (in ClC(Cl)Cl) was 0.0272.

`CN(c1ccccc1)c1ccc(/C=C/c2ccccc2)cc1` showed a photoluminescence quantum yield (in CC#N) of 0.31 and a photoluminescence quantum yield (in CCCCCC) of 0.64.

Work on `CN(C)c1ccc(/C=C/c2ccccc2)cc1` yielded a photoluminescence quantum yield (in CC#N) of 0.04 and a photoluminescence quantum yield (in CCCCCC) of 0.03.

For `c1ccc(-c2nc(-c3ccc(N4CCCC4)cc3)cc(-c3ccc4ccccc4c3)n2)cc1`, the photoluminescence quantum yield (in ClC(Cl)Cl) was 0.19.

Compound `c1csc(-c2c3ccc(=[N+]4CCCCC4)cc-3oc3cc(N4CCCCC4)ccc23)c1` has a photoluminescence quantum yield (in CCO) of 0.1 and a photoluminescence quantum yield (in ClCCl) of 0.33.

In the case of `Cc1cc(C)c(C2=C3C=C(/C=C/C(=O)OC(C)(C)C)C=[N+]3[B-](F)(F)n3cccc32)c(C)c1`, the photoluminescence quantum yield (in ClCCl) is reported as 0.3.

Work on `CC1=CC(/C=C/c2ccc(OCCCN=[N+]=[N-])cc2)=[N+]2C1=C(c1ccc(N(C)C)cc1)c1c(C)cc(C)n1[B-]2(F)F` yielded a photoluminescence quantum yield (in CO) of 0.59.

Work on `COC(=O)C(Cc1ccc2oc(-c3ccncc3)nc2c1)NC(=O)OC(C)(C)C` (stereo not drawn) yielded a photoluminescence quantum yield (in CC1CCCCC1) of 0.01, a photoluminescence quantum yield (in CC#N) of 0.21 and a photoluminescence quantum yield (in CO) of 0.4.

For `CCN1c2ccc(/C=N/Nc3ccccn3)cc2Sc2cc(-c3ccc(OC)cc3)ccc21`, the photoluminescence quantum yield (in C1CCOC1) was 0.32, the photoluminescence quantum yield (in CS(C)=O) was 0.55 and the photoluminescence quantum yield (in Cc1ccccc1) was 0.16. For the same compound, the photoluminescence quantum yield (in ClCCl) was 0.38.

For `Cc1cc2cc(C)c3c4ccccc4[nH]c3c2o1`, the photoluminescence quantum yield (in ClCCl) was 0.2.

`CN(C)c1ccc(C#Cc2cc(C#Cc3ccc(N(C)C)cc3)c3ccc4c(C#Cc5ccc(N(C)C)cc5)cc(C#Cc5ccc(N(C)C)cc5)c5ccc2c3c54)cc1` showed a photoluminescence quantum yield (in ClCCl) of 0.6.

For `CC[N+]1(CC)CN2C(=N1)C(C(=O)[O-])=Cc1ccccc12`, the photoluminescence quantum yield (in CN(C)C=O) was 0.05 and the photoluminescence quantum yield (in O) was 0.736.

In the case of `Cn1nc(-c2ccccc2)c2nc3cc(Cl)ccc3nc21`, the photoluminescence quantum yield (in C1CCCCC1) is reported as 0.58, the photoluminescence quantum yield (in C1CCOC1) is reported as 0.27 and the photoluminescence quantum yield (in CC#N) is reported as 0.08.

In the case of `N#Cc1nn(-c2cccc(C(F)(F)F)c2)nc1N1CCCC1`, the photoluminescence quantum yield (in CC#N) is reported as 0.801.

Compound `COC(=O)c1ccc2ccc3cccc4ccc1c2c34` has a photoluminescence quantum yield (in C1CCOC1) of 0.68, a photoluminescence quantum yield (in CC#N) of 0.79 and a photoluminescence quantum yield (in CCCCCC) of 0.63. It also gave a photoluminescence quantum yield (in CCO) of 0.81, a photoluminescence quantum yield (in CN(C)C=O) of 0.74 and a photoluminescence quantum yield (in CO) of 0.69. It also gave a photoluminescence quantum yield (in Cc1ccccc1) of 0.76 and a photoluminescence quantum yield (in ClCCl) of 0.56.

`CC1(C)C2=[N+](CCCCCC(=O)NCCNC(=O)CCCCCN3/C(=C/C=C/C=C/C=C/2)C(C)(C)c2cc(S(=O)(=O)[O-])ccc23)c2ccc(S(=O)(=O)[O-])cc21` showed a photoluminescence quantum yield (in CO) of 0.57 and a photoluminescence quantum yield (in O) of 0.33.

In the case of `O=c1oc2ccccc2c(O)c1C(CC(O)c1ccc(-c2ccc(Br)cc2)cc1)c1ccccc1` (stereo not drawn), the photoluminescence quantum yield (in CC#N) is reported as 0.06, the photoluminescence quantum yield (in CCO) is reported as 0.058 and the photoluminescence quantum yield (in CO) is reported as 0.034. The photoluminescence quantum yield (in O) was 0.017.
